Assay: Evaluation of solubility in xylene (visual observation)
Format: physicochemical
Conditions: stirred by magnetic stirrer 10 minutes, visually observed

| Compound | Solubility of a 1 wt % xylene solution |
| --- | --- |
| COCCOCCN1CC2C3=c4c5c6c7c(cc8cc9cc%10cc%11cc%12c%13c(c4c4c5c5c7c8c7c9c%10c8c%11c%13c4c8c75)=C(C3)C%12)CC62C1c1ccc(C(F)(F)F)cc1 (stereo not shown) [Fullerene derivative F] | Dissolved |
| COCCOCCN1CC2C3=c4c5c6c7c(cc8cc9cc%10cc%11cc%12c%13c(c4c4c5c5c7c8c7c9c%10c8c%11c%13c4c8c75)=C(C3)C%12)CC62C1c1ccc(C)cc1 (stereo not shown) [Fullerene derivative D, N-methoxyethoxyethyl-2-(4-methylphenyl)fulleropyrrolidine] | Dissolved |
| COCCOCCN1CC2C3=c4c5c6c7c(cc8cc9cc%10cc%11cc%12c%13c(c4c4c5c5c7c8c7c9c%10c8c%11c%13c4c8c75)=C(C3)C%12)CC62C1c1cccc2ccccc12 (stereo not shown) [Fullerene derivative A, N-methoxyethoxyethyl-2-(1-naphthyl)fulleropyrrolidine] | Dissolved |
| COCCOCCN1CC2C3=c4c5c6c7c(cc8cc9cc%10cc%11cc%12c%13c(c4c4c5c5c7c8c7c9c%10c8c%11c%13c4c8c75)=C(C3)C%12)CC62C1CCc1ccccc1 (stereo not shown) [Fullerene derivative G, N-methoxyethoxyethyl-2-(2-phenylethyl)fulleropyrrolidine] | Dissolved |
| COCCOCCN1CC2C3=c4c5c6c7c(cc8cc9cc%10cc%11cc%12c%13c(c4c4c5c5c7c8c7c9c%10c8c%11c%13c4c8c75)=C(C3)C%12)CC62C1c1ccccc1 (stereo not shown) [Fullerene derivative E, N-methoxyethoxyethyl-2-phenyl-fulleropyrrolidine] | Dissolved |
| COCCOCCN1CC2C3=c4c5c6c7c(cc8cc9cc%10cc%11cc%12c%13c(c4c4c5c5c7c8c7c9c%10c8c%11c%13c4c8c75)=C(C3)C%12)CC62C1c1c(F)c(F)c(F)c(F)c1F (stereo not shown) [Fullerene derivative B, N-methoxyethoxyethyl-2-(perfluorophenyl)fulleropyrrolidine] | Dissolved |
| COCCOCCN1CC2C3=c4c5c6c7c(cc8cc9cc%10cc%11cc%12c%13c(c4c4c5c5c7c8c7c9c%10c8c%11c%13c4c8c75)=C(C3)C%12)CC62C1c1ccc(F)cc1 (stereo not shown) [Fullerene derivative C, N-methoxyethoxyethyl-2-(4-fluorophenyl) fulleropyrrolidine] | Dissolved |

Source: US20110001093A1, “FULLERENE DERIVATIVE” (SUMITOMO CHEMICAL COMPANY LIMITED, priority 2007, published 2011)
